How the values were obtained:
Assay type in all cases: cell-based
HT29 cells = assay: Western blot protein expression; conditions: HT29, IC50, 72 h
Summary of the method: (§1)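 Cells were lysed in RIPA buffer with orthovanadate, and 20 µg protein was run on SDS-PAGE, transferred to PVDF and probed for proliferation, apoptosis, microtubule and autophagy markers. ECL band intensities were normalised to GAPDH and then to untreated control. Three independent experiments were run per marker.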

MDA−MB−231 cells = assay: Western blot protein expression; conditions: MDA−MB−231, IC50, 72 h
Summary of the method: as §1

A2780 = assay: WST-1 cytotoxicity, 72 h
Summary of the method: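 Cells were seeded at 1000 per well and exposed to compound for 72 h. Viability was then read with WST-1 (1 h, absorbance at 450 nm). Apparent IC50 values came from nonlinear regression of % survival across three experiments, each with n = 3.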

MDA−MB−231 spheroids = assay: 3D bioprinted spheroid cytotoxicity (WST-1); conditions: 72 h, mean ± SEM
HT29 spheroids = assay: 3D bioprinted spheroid cytotoxicity (WST-1); conditions: 72 h, mean ± SEM
[1] = representative blot Figure S30G
[2] = representative blot Figure S30H

Cc1c(C)c2cccnc2c2ncccc12.N[C@H]1CCCC[C@@H]1N.O=[N+]([O-])[O-].O=[N+]([O-])[O-].[OH][Pt+2][OH] [Pt^IV56MESS(OH)2, [Pt(5,6-dimethyl-1,10-phenanthroline)(1S,2S-diaminocyclohexane)(dihydroxy)](NO3)2]
β-actin/GAPDH normalized to control (1) (HT29 cells; representative blot Figure S28A): 1.209
β-tubulin/GAPDH normalized to control (1) (HT29 cells; representative blot Figure S28B): 0.7075
α-tubulin/GAPDH normalized to control (1) (HT29 cells; representative blot Figure S28C): 0.5719
p-AKT/AKT/GAPDH normalized to control (1) (HT29 cells; representative blot Figure S29A): 0.7209
p-ERK/ERK/GAPDH normalized to control (1) (HT29 cells; representative blot Figure S29B): 1.28
p53/GAPDH normalized to control (1) (HT29 cells; representative blot Figure S29C): 5.047
p21/GAPDH normalized to control (1) (HT29 cells; representative blot Figure S29D): 2.808
Bax/GAPDH normalized to control (1) (HT29 cells; representative blot Figure S30A): 3.498
Bcl2/GAPDH normalized to control (1) (HT29 cells; representative blot Figure S30B): 1.034
Cyt C/GAPDH normalized to control (1) (HT29 cells; representative blot Figure S30C): 7.663
Procaspase 8/GAPDH normalized to control (1) (HT29 cells; representative blot Figure S30D): 0.4035
Cleaved BID/GAPDH normalized to control (1) (HT29 cells; representative blot Figure S30E): 2.651
Procaspase 9/GAPDH normalized to control (1) (HT29 cells; representative blot Figure S30F): 0.4964
Cleaved caspase 3/GAPDH normalized to control (1) (HT29 cells; [1]): 1.746
Procaspase 3/GAPDH normalized to control (1) (HT29 cells; [1]): 1.297
Cleaved PARP-1/GAPDH normalized to control (1) (HT29 cells; [2]): 2.724
PARP-1/GAPDH normalized to control (1) (HT29 cells; [2]): 0.7172
Beclin1/GAPDH normalized to control (1) (HT29 cells; representative blot Figure S31A): 6.222
ATG5/GAPDH normalized to control (1) (HT29 cells; representative blot Figure S31B): 0.3221
ATG16L1/GAPDH normalized to control (1) (HT29 cells; representative blot Figure S31C): 4.523
ATG9A/GAPDH normalized to control (1) (HT29 cells; representative blot Figure S31D): 0.9044
ATG4B/GAPDH normalized to control (1) (HT29 cells; representative blot Figure S31E): 0.9223
LC3B/GAPDH normalized to control (1) (HT29 cells; representative blot Figure S31F): 1.976
β-actin/GAPDH normalized to control (1) (MDA−MB−231 cells; representative blot Figure S24A): 0.6671
β-tubulin/GAPDH normalized to control (1) (MDA−MB−231 cells; representative blot Figure S24B): 0.4289
α-tubulin/GAPDH normalized to control (1) (MDA−MB−231 cells; representative blot Figure S24C): 1.359
p-AKT/AKT/GAPDH normalized to control (1) (MDA−MB−231 cells; representative blot Figure S25A): 0.79
p-ERK/ERK/GAPDH normalized to control (1) (MDA−MB−231 cells; representative blot Figure S25B): 0.2828
p53/GAPDH normalized to control (1) (MDA−MB−231 cells; representative blot Figure S25C): 1.183
p21/GAPDH normalized to control (1) (MDA−MB−231 cells; representative blot Figure S25D): 1.053
Bax/GAPDH normalized to control (1) (MDA−MB−231 cells; representative blot Figure S26A): 2.6
Bcl2/GAPDH normalized to control (1) (MDA−MB−231 cells; representative blot Figure S26B): 0.8651
Cytochrome C/GAPDH normalized to control (1) (MDA−MB−231 cells; representative blot Figure S26C): 2.185
Procaspase 8/GAPDH normalized to control (1) (MDA−MB−231 cells; representative blot Figure S26D): 0.568
Cleaved BID/GAPDH normalized to control (1) (MDA−MB−231 cells; representative blot Figure S26E): 8.533
Procaspase 9/GAPDH normalized to control (1) (MDA−MB−231 cells; representative blot Figure S26F): 0.4557
Procaspase 3/GAPDH normalized to control (1) (MDA−MB−231 cells; representative blot Figure S26G): 0.9471
PARP-1/GAPDH normalized to control (1) (MDA−MB−231 cells; representative blot Figure S26H): 0.6182
Beclin1/GAPDH normalized to control (1) (MDA−MB−231 cells; representative blot Figure S27A): 0.9592
ATG5/GAPDH normalized to control (1) (MDA−MB−231 cells; representative blot Figure S27B): 0.8924
ATG16L1/GAPDH normalized to control (1) (MDA−MB−231 cells; representative blot Figure S27C): 1.456
ATG9A/GAPDH normalized to control (1) (MDA−MB−231 cells; representative blot Figure S27D): 0.8822
ATG4B/GAPDH normalized to control (1) (MDA−MB−231 cells; representative blot Figure S27E): 2.179
LC3B/GAPDH normalized to control (1) (MDA−MB−231 cells; representative blot Figure S27F): 0.7501
potency relative to cisplatin (A2780; A2780, 72 h): 13 fold
IC50 (A2780; A2780, 72 h, mean ± SEM): 1.69 ± 1.36 µM
Selective cytotoxicity index (SCI) (A2780; IC50 MCF10A/IC50 A2780): 2.90
IC50 (MDA−MB−231 spheroids): 4.59 ± 1.35 µM
IC50 (HT29 spheroids): 3.16 ± 1.32 µM

— PMC11274883, “Anticancer Effect of Pt^[sequence], Pt^II5MESS, Pt^II56MESS and Their Platinum(IV)-Dihydroxy Derivatives against Triple-Negative Breast Cancer and Cisplatin-Resistant Colorectal Cancer” (Cancers, 2024)
